29 molecules from patent US20100119599A1 (ARCHER PHARMACEUTICALS, INC., priority 2006, published 2010) can be followed below.

One assay concerns Aβ1-42. The experiment in a line: Measurement of Aβ1-42 in culture medium of 7W WT APP751 CHO cells by ELISA. Format: cell-based, Chinese hamster. The conditions noted are these: for Aβ1-42 (% of control): CHO cells that overexpress APP751, zero = below the detection limit of the assay; for activity at 5 µM: Cricetulus griseus, Table 1, 5 μM test compound, CHO cells stably transfected with human APP751, culture medium, ELISA, control DMSO, 0 = no detectable amount, read-out: Aβ1-42 (% of control).

The test system of a further assay is Aβ1-40. The experiment in a line: Measurement of Aβ1-40 in culture medium of 7W WT APP751 CHO cells by ELISA. In kind it is cell-based, Chinese hamster. The conditions noted are these: for Aβ1-40 (% of control): CHO cells that overexpress APP751, zero = below the detection limit of the assay; for activity at 5 µM: Cricetulus griseus, Table 1, 5 μM test compound, CHO cells stably transfected with human APP751, culture medium, ELISA, control DMSO, 0 = no detectable amount.
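Also: 5 µM test compound but RI-coded compounds at 10 µM for 24 hours.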

Turning to `CCOC(=O)C1=C(N)n2c(s/c(=C/c3ccc(C(C)C)cc3)c2=O)=C(C(=O)OCC)C1c1ccc(C(C)C)cc1` (stereo not shown) [ST011764, ethyl 5-amino-6-(ethoxycarbonyl)-7-[4-(methylethyl)phenyl]-2-{[4-(methylethyl)phenyl]methylene}-3-oxo-4,7-dihydro-1,3-thiazolidino[3,2-a]pyridine-8-carboxylate], the “Aβ1-42 (% of control)” value in the assay on Aβ1-42 is given as 70.37 % of control. Moreover, in the assay with Aβ1-40, the “Aβ1-40 (% of control)” value is 83.4 % of control.

As for `CCOC(=O)C1=C(N)n2c(s/c(=C/c3ccco3)c2=O)=C(C(=O)OCC)C1c1ccco1` (stereo not shown) [ST011765, ethyl 5-amino-6-(ethoxycarbonyl)-7-(2-furyl)-2-(2-furylmethylene)-3-oxo-4,7-dihydro-1,3-thiazolidino[3,2-a]pyridine-8-carboxylate], in the assay with Aβ1-42, the “Aβ1-42 (% of control)” value is on record as 29.42 % of control. Besides, the “Aβ1-40 (% of control)” value in the assay on Aβ1-40 is 42.57 % of control.

For the molecule `CCOC(=O)C1=c2s/c(=C/c3ccc(C)s3)c(=O)n2C(N)=C(C#N)C1c1ccc(C)s1` (stereo not shown) [ST011766], in the assay on Aβ1-42, the “Aβ1-42 (% of control)” value is 9.558 % of control. Further, the “Aβ1-40 (% of control)” value in the assay with Aβ1-40 is reported as 21.1 % of control.

On to `COC(=O)C1=C(N)n2c(s/c(=C/c3cccnc3)c2=O)=C(C(=O)OC)C1c1cccnc1` (stereo not shown) [ST011768, methyl 5-amino-6-(methoxycarbonyl)-3-oxo-7-(3-pyridyl)-2-(3-pyridylmethylene)-4,7-dihydro-1,3-thiazolidino[3,2-a]pyridine-8-carboxylate], for which the “Aβ1-42 (% of control)” value in the assay on Aβ1-42 is recorded as 97.83 % of control. In the assay with Aβ1-40, the “Aβ1-40 (% of control)” value is 42.71 % of control.

On to `COC(=O)C1=C(N)n2c(s/c(=C/c3ccc(Cl)cc3Cl)c2=O)=C(C(=O)OC)C1c1ccc(Cl)cc1Cl` (stereo not shown) [ST011769, methyl 5-amino-7-(2,4-dichlorophenyl)-2-[(2,4-dichlorophenyl)methylene]-6-(methoxycarbonyl)-3-oxo-4,7-dihydro-1,3-thiazolidino[3,2-a]pyridine-8-carboxylate], for which the “Aβ1-42 (% of control)” value with Aβ1-42 was 71.56 % of control. The “Aβ1-40 (% of control)” value in the assay with Aβ1-40 is given as 42.3 % of control.

With `CCN(CC)c1ccc(C2C(C(=O)OCc3ccccc3)=C(C)NC3=C2C(=O)CC(C)(C)C3)cc1` (stereo not shown) [ST013049, phenylmethyl 4-[4-(diethylamino)phenyl]-2,7,7-trimethyl-5-oxo-1,4,6,7,8-pentahydroquinoline-3-carboxylate], the values for the activity at 5 µM in the assay on Aβ1-42 and with Aβ1-40 were 94.1% and 27.8%, respectively.

Take `CC1=C(C(=O)OCc2ccccc2)C(c2cc3c(cc2[NH+]([O-])O)OCO3)C2=C(CC(C)(C)CC2=O)N1` (stereo not shown) [ST013052, phenylmethyl 2,7,7-trimethyl-4-(6-nitro(2H-benzo[d]1,3-dioxolan-5-yl))-5-oxo-1,4,6,7,8-pentahydroquinoline-3-carboxylate]: the activity at 5 µM was 72.4% with Aβ1-42 and 68.8% in the assay with Aβ1-40.

For the molecule `CCCCCOC(=O)C1=C(C)NC2=C(C(=O)CC(C)(C)C2)C1c1ccc(Cl)cc1` (stereo not shown) [ST013054, pentyl 4-(4-chlorophenyl)-2,7,7-trimethyl-5-oxo-1,4,6,7,8-pentahydroquinoline-3-carboxylate], the activity at 5 µM is 8.36% in the assay on Aβ1-42 and 0% in the assay with Aβ1-40.

`COC(=O)C1=C(C)NC2=C(C(=O)CC(C)(C)C2)C1c1cccnc1` (stereo not shown) [ST013059, methyl 2,7,7-trimethyl-5-oxo-4-(3-pyridyl)-1,4,6,7,8-pentahydroquinoline-3-carboxylate]: the activity at 5 µM with Aβ1-42 is 76.1%; in the assay on Aβ1-40, 26.7%.

Turning to `CCOC(=O)C1=C(C)NC2=C(C(=O)CC(C)(C)C2)C1c1cc2c(cc1[NH+]([O-])O)OCO2` (stereo not shown) [ST013060, ethyl 2,7,7-trimethyl-4-(6-nitro(2H-benzo[d]1,3-dioxolan-5-yl))-5-oxo-1,4,6,7,8-pentahydroquinoline-3-carboxylate], the activity at 5 µM in the assay with Aβ1-42 worked out at 99.4%; with Aβ1-40 it was 32.7%.

As to `CCOC(=O)C1=C(C)NC2=C(C(=O)CCC2)C1c1ccc(N(C)C)cc1` (stereo not shown) [ST013066, ethyl 4-[4-(dimethylamino)phenyl]-2-methyl-5-oxo-1,4,6,7,8-pentahydroquinoline-3-carboxylate], the values for the activity at 5 µM with Aβ1-42 and in the assay with Aβ1-40 were 96.7% and 68.4%, respectively.

As to `CCOC(=O)C1=C(C)NC2=C(C(=O)CCC2)C1c1cccnc1` (stereo not shown) [ST013070, ethyl 2-methyl-5-oxo-4-(3-pyridyl)-1,4,6,7,8-pentahydroquinoline-3-carboxylate], the activity at 5 µM with Aβ1-42 came out at 82.4%; in the assay with Aβ1-40, 34%.

Consider `COC(=O)C1=C(C)NC2=C(C(=O)CCC2)C1c1cc(OC)ccc1OC` (stereo not shown) [ST013073, methyl 4-(2,5-dimethoxyphenyl)-2-methyl-5-oxo-1,4,6,7,8-pentahydroquinoline-3-carboxylate], for which the activity at 5 µM with Aβ1-42 stood at 93.2%; in the assay on Aβ1-40, 49.5%.

As to `CC1=C(C(=O)OC(C)C)C(c2cccnc2)C2=C(CCCC2=O)N1` (stereo not shown) [ST013077, methylethyl 2-methyl-5-oxo-4-(3-pyridyl)-1,4,6,7,8-pentahydroquinoline-3-carboxylate], the activity at 5 µM stood at 97.8% in the assay on Aβ1-42 and 27.4% with Aβ1-40.

As for `CC1=C(C(=O)OC2CCCC2)C(c2ccc(Cl)cc2)C2=C(CC(C)(C)CC2=O)N1` (stereo not shown) [ST013081, cyclopentyl 4-(4-chlorophenyl)-2,7,7-trimethyl-5-oxo-1,4,6,7,8-pentahydroquinoline-3-carboxylate], the activity at 5 µM amounted to 0.188% in the assay with Aβ1-42 and 0% in the assay on Aβ1-40.

With `CCN(CC)c1ccc(C2C(C(=O)OC3CCCC3)=C(C)NC3=C2C(=O)CC(C)(C)C3)cc1` (stereo not shown) [ST013083, cyclopentyl 4-[4-(diethylamino)phenyl]-2,7,7-trimethyl-5-oxo-1,4,6,7,8-pentahydroquinoline-3-carboxylate], the activity at 5 µM in the assay on Aβ1-42 was determined as 91.6%; in the assay on Aβ1-40 it was 0%.

Regarding `COc1ccc(C2C(C(=O)OC3CCCC3)=C(C)NC3=C2C(=O)CC(C)(C)C3)c(OC)c1` (stereo not shown) [ST013086, cyclopentyl 4-(2,4-dimethoxyphenyl)-2,7,7-trimethyl-5-oxo-1,4,6,7,8-pentahydroquinoline-3-carboxylate], the activity at 5 µM in the assay with Aβ1-42 turned out to be 73.7%; in the assay on Aβ1-40, 0%.

Take `CC1=C(C(=O)OC(C)C)C(c2ccncc2)C2=C(CCCC2=O)N1` (stereo not shown) [ST013090, methylethyl 2-methyl-5-oxo-4-(4-pyridyl)-1,4,6,7,8-pentahydroquinoline-3-carboxylate]: the activity at 5 µM in the assay with Aβ1-42 worked out at 87.3%; in the assay with Aβ1-40, 41.1%.

As to `CC1=C(C(=O)OC2CCCC2)C(c2ccccc2Br)C2=C(CC(C)(C)CC2=O)N1` (stereo not shown) [ST013103, cyclopentyl 4-(2-bromophenyl)-2,7,7-trimethyl-5-oxo-1,4,6,7,8-pentahydroquinoline-3-carboxylate], the activity at 5 µM was determined as 68.2% in the assay on Aβ1-42 and 0% in the assay on Aβ1-40.

`COC(=O)C1=C(C)NC2=C(C(=O)CC(c3ccccc3)C2)C1c1ccc(O)c(OC)c1` (stereo not shown) [ST013115, methyl 4-(4-hydroxy-3-methoxyphenyl)-2-methyl-5-oxo-7-phenyl-1,4,6,7,8-pentahydroquinoline-3-carboxylate]: the results for the activity at 5 µM in the assay with Aβ1-42 and in the assay with Aβ1-40 were 65.7% and 94.7%, respectively.

Consider `COC(=O)C1=C(C)NC2=C(C(=O)CC(c3ccccc3)C2)C1c1cc(OC)ccc1OC` (stereo not shown) [ST013117, methyl 4-(2,5-dimethoxyphenyl)-2-methyl-5-oxo-7-phenyl-1,4,6,7,8-pentahydroquinoline-3-carboxylate], for which the activity at 5 µM stood at 46.1% in the assay on Aβ1-42 and 22.4% with Aβ1-40.

For `CCN(CC)c1ccc(C2C(C(=O)OC)=C(C)NC3=C2C(=O)CC(c2ccccc2)C3)cc1` (stereo not shown) [ST013129, methyl 4-[4-(diethylamino)phenyl]-2-methyl-5-oxo-7-phenyl-1,4,6,7,8-pentahydroquinoline-3-carboxylate], the figures for the activity at 5 µM in the assay on Aβ1-42 and in the assay on Aβ1-40 were 90.6% and 64.3%, respectively.

Take `COc1ccc(C2C(C(=O)OC3CCCC3)=C(C)NC3=C2C(=O)CCC3)cc1Br` (stereo not shown) [ST013137, cyclopentyl 4-(3-bromo-4-methoxyphenyl)-2-methyl-5-oxo-1,4,6,7,8-pentahydroquinoline-3-carboxylate]: the activity at 5 µM in the assay with Aβ1-42 turned out to be 30%; with Aβ1-40 it was 18.7%.

On to `COc1ccc(C2C(C(=O)OCc3ccccc3)=C(C)NC3=C2C(=O)CCC3)cc1OC` (stereo not shown) [ST013138, phenylmethyl 4-(3,4-dimethoxyphenyl)-2-methyl-5-oxo-1,4,6,7,8-pentahydroquinoline-3-carboxylate], for which the activity at 5 µM was 56.8% in the assay on Aβ1-42 and 69.7% in the assay with Aβ1-40.

As to `COC(=O)C1=C(C)NC2=C(C(=O)CCC2)C1c1cccc(OC)c1OC` (stereo not shown) [ST013140, methyl 4-(2,3-dimethoxyphenyl)-2-methyl-5-oxo-1,4,6,7,8-pentahydroquinoline-3-carboxylate], the results for the activity at 5 µM in the assay with Aβ1-42 and with Aβ1-40 were 51.1% and 96%, respectively.

`COC(=O)C1=C(C)NC2=C(C(=O)CCC2)C1c1cc(Br)c(O)c(OC)c1` (stereo not shown) [ST013141, methyl 4-(3-bromo-4-hydroxy-5-methoxyphenyl)-2-methyl-5-oxo-1,4,6,7,8-pentahydroquinoline-3-carboxylate]: the values for the activity at 5 µM in the assay with Aβ1-42 and in the assay with Aβ1-40 were 23.7% and 89.7%, respectively.

With `COC(=O)C1=C(C)NC2=C(C(=O)CC(C)(C)C2)C1c1cccc(Br)c1` (stereo not shown) [ST013145, methyl 4-(3-bromophenyl)-2,7,7-trimethyl-5-oxo-1,4,6,7,8-pentahydroquinoline-3-carboxylate], the results for the activity at 5 µM with Aβ1-42 and with Aβ1-40 were 43.3% and 13.9%, respectively.

`COC(=O)C1=C(C)NC2=C(C(=O)CCC2)C1c1ccc(OC)c(OC)c1OC` (stereo not shown) [ST013147, methyl 2-methyl-5-oxo-4-(2,3,4-trimethoxyphenyl)-1,4,6,7,8-pentahydroquinoline-3-carboxylate]: the activity at 5 µM in the assay on Aβ1-42 came out at 45.4%; in the assay with Aβ1-40, 72%.

Take `CCOC(=O)C1=C(C)NC2=C(C(=O)CCC2)C1c1cccc(O)c1` (stereo not shown) [ST013148, ethyl 4-(3-hydroxyphenyl)-2-methyl-5-oxo-1,4,6,7,8-pentahydroquinoline-3-carboxylate]: the activity at 5 µM was 49.9% in the assay on Aβ1-42 and 66.1% in the assay with Aβ1-40.
